Several values for one entry are separate records, joined by “and”; a condition that tells them apart may be missing. Equal values may be shown once.
Key:
Format in all cases: cell-based
Design in all cases: GPCRome screening signal at PTGIR / GPCRome screening signal at PTH1R / GPCRome screening signal at PTH2R / GPCRome screening signal at QRFP / GPCRome screening signal at RXFP2 / GPCRome screening signal at RXFP3 / GPCRome screening signal at RXFP4 / GPCRome screening signal at S1PR2 / GPCRome screening signal at S1PR3 / GPCRome screening signal at S1PR4 / GPCRome screening signal at S1PR5 / GPCRome screening signal at SCTR / GPCRome screening signal at SSTR2 / GPCRome screening signal at SSSTR / GPCRome screening signal at SSTR4 / GPCRome screening signal at SSTR5 / GPCRome screening signal at SUCNR1 / GPCRome screening signal at TA1 / GPCRome screening signal at TAAR2 / GPCRome screening signal at TAAR5 / GPCRome screening signal at TAAR6 / GPCRome screening signal at TAAR8 / GPCRome screening signal at TACR1 / GPCRome screening signal at TACR2 / GPCRome screening signal at TACR3 / GPCRome screening signal at TBXA2R / GPCRome screening signal at TSHR / GPCRome screening signal at UTS2R / GPCRome screening signal at VIPR2 / GPCRome screening signal at GPR68 no V2 Tail / GPCRome screening signal at GRM2 / GPCRome screening signal at GRM3: reference not given here
[1] = target: T1, 320 non-olfactory GPCRs (Homo sapiens, UniProt Q9HBX9); details: receptor RXFP1
T1 construct: expressed in transfected cells; host or cells: HTLA cells
T1 sequence (Q9HBX9 whole entry): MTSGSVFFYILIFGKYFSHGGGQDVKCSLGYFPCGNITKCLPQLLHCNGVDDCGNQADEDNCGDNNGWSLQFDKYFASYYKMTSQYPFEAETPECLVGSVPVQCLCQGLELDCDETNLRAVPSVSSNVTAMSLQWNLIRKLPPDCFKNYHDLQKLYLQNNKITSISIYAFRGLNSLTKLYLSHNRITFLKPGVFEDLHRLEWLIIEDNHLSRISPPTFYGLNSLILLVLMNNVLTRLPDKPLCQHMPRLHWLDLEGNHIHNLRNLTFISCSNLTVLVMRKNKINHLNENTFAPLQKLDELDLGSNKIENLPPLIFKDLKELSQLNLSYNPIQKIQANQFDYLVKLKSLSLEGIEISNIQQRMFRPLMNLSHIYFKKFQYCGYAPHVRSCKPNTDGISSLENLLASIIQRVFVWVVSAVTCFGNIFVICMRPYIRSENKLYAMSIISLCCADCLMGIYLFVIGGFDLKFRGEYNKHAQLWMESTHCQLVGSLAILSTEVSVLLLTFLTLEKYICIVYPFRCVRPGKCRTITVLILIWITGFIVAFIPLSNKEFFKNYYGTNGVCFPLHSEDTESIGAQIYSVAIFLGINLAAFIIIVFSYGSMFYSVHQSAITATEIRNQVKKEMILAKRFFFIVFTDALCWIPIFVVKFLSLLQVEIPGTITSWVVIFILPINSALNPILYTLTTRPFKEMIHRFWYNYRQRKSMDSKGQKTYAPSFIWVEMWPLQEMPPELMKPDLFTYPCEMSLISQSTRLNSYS

[2] = target: T2, 320 non-olfactory GPCRs (Homo sapiens, UniProt Q969N4); details: receptor TAAR8
T2 construct: expressed in transfected cells; host or cells: HTLA cells
T2 sequence (Q969N4 whole entry): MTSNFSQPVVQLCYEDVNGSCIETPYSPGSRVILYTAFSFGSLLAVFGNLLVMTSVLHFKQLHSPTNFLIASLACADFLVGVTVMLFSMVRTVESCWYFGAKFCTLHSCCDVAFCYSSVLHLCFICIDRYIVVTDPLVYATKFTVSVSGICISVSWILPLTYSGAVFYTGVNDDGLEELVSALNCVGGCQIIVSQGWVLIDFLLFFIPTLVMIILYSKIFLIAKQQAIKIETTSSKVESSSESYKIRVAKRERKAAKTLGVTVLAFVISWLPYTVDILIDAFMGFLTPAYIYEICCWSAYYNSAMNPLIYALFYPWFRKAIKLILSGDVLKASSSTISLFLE

[3] = target: 320 non-olfactory GPCRs (Homo sapiens, UniProt P30872); details: receptor SSTR1
Sequence of 320 non-olfactory GPCRs (Homo sapiens, UniProt P30872) (P30872 whole entry): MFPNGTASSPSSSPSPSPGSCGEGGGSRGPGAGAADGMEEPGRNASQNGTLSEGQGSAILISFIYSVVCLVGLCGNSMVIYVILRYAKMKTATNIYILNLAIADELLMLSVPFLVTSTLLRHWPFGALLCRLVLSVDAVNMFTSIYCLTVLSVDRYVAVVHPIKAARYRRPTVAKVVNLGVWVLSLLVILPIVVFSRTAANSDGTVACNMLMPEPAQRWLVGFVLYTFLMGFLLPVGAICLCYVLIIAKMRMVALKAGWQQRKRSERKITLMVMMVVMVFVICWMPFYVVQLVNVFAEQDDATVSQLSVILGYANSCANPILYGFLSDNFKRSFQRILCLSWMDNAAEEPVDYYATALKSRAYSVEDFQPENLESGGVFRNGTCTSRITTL

[4] = target: 320 non-olfactory GPCRs (Homo sapiens, UniProt Q99500); details: receptor S1PR3
Sequence of 320 non-olfactory GPCRs (Homo sapiens, UniProt Q99500) (Q99500 whole entry): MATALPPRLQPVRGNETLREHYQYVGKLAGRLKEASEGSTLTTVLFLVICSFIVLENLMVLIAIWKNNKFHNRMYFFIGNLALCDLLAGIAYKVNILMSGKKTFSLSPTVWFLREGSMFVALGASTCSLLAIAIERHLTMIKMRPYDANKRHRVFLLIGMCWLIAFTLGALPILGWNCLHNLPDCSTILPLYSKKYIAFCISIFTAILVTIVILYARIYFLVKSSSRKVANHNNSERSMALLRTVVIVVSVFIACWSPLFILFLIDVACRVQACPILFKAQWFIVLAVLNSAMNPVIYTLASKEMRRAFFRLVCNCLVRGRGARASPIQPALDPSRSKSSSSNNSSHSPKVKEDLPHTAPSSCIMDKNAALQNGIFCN

[5] = Fig_5f, single replicate values
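Throughout, for GPCRome agonism screen response: fold over basal response of each receptor without drug.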

Structure (SMILES) | GPCRome agonism screen response ([1]; replicate values, Fig_4g) | GPCRome agonism screen response ([2]; replicate values, Fig_4g) | GPCRome agonism screen response ([3]; replicate values, Fig_4g) | GPCRome agonism screen response ([4]; replicate values, Fig_4g) | GPCRome screening signal at RXFP1 [1, 5] | GPCRome screening signal at TAAR8 [2, 5] | GPCRome screening signal at SSTR1 [3, 5] | GPCRome screening signal at S1PR3 [4, 5]
CCOc1cccc2cc(C(C)NCC3(O)CCCCC3)oc12 (centres unmarked) [O4LE6] | 1.294 and 0.8675 and 1.5976 and 1.234 | 0.2595 and 0.5748 and 0.5852 and 0.7484 | 1.245 and 0.3022 and 1.123 and 1.305 | 2.336 and 1.6343 and 1.172 and 1.379 |  |  |  | 
CCOc1ccccc1CCC(C)NCC1(O)CCCCC1.Cl (racemic) [Fig_5f] |  |  |  |  | 1.526 and 1.245 and 1.665 and 0.7058 | 0.6115 and 0.4578 and 0.5144 and 0.5546 | 2.563 and 1.311 and 1.193 and 0.9402 | 1.578 and 1.076 and 2.206 and 1.217

From publication PMC7044277 (Nature Communications, 2020)
